# According to patent US9447038B2 (SANOFI, priority 2012, dated 2016):
# Structures can show the parent of a compound that is named as a salt.
# Molecular target: human CXCR3-A receptor (Homo sapiens (Human), UniProt P49682)
# Experiment: 125I-CXCL10 competition radioligand binding assay;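 note: One-hour incubation of membranes with tracer, bound radioligand separated by glass fibre filtration, IC50 derived from four-parameter nonlinear fit of competition curves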
# Conditions: displacement of 125I-CXCL10 from membranes of CHO cells expressing human recombinant CXCR3-A
# Chain of human CXCR3-A receptor (P49682 whole entry): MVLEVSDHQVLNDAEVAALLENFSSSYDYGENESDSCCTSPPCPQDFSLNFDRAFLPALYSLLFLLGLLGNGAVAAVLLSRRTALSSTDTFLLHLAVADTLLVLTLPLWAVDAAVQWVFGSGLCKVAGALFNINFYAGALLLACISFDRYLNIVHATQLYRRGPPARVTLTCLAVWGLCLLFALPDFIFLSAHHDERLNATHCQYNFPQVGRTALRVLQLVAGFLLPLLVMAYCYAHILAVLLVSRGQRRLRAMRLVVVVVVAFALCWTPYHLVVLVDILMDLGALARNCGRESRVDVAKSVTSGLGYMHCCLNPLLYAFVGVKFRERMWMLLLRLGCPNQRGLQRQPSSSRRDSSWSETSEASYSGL
row,SMILES,IC50 [nM]
1,"CCCN(Cc1ccc(OCCn2c(=O)ccn(C)c2=O)c(OC)c1)C(CC(=O)O)c1ccc(Cl)cc1Cl (centres unmarked) [Example 159, 3-(2,4-Dichloro-phenyl)-3-({3-methoxy-4-[2-(3-methyl-2,6-dioxo-3,6-dihydro-2H-pyrimidin-1-yl)-ethoxy]-benzyl}-propyl-amino)-propionic acid]",354
2,"Cc1cc(CN(CCC(F)(F)F)C(CC(=O)O)c2ccc(Cl)c(Cl)c2)ccc1OCCN1C(=O)CCC1=O (centres unmarked) [Example 167, 3-(3,4-Dichloro-phenyl)-3-[{4-[2-(2,5-dioxo-pyrrolidin-1-yl)-ethoxy]-3-methyl-benzyl}-(3,3,3-trifluoro-propyl)-amino]-propionic acid]",2440
3,"COc1cc(CN(CC2CCCCC2)C2c3ccc(Cl)cc3CC2C(=O)O)ccc1OCCN1C(=O)CCC1=O (centres unmarked) [Example 169, 5-Chloro-1-(cyclohexylmethyl-{4-[2-(2,5-dioxo-pyrrolidin-1-yl)-ethoxy]-3-methoxy-benzyl}-amino)-indan-2-carboxylic acid]",407
4,"COc1cc(CN(CC(C)C)C2c3ccc(Cl)cc3CC2C(=O)O)ccc1OCCN1C(=O)CCC1=O (centres unmarked) [Example 170, 5-Chloro-1-({4-[2-(2,5-dioxo-pyrrolidin-1-yl)-ethoxy]-3-methoxy-benzyl}-isobutyl-amino)-indan-2-carboxylic acid]",345
5,"COc1cc(CN(CC2CCCC2)C2c3ccc(Cl)cc3CC2C(=O)O)ccc1OCCN1C(=O)CCC1=O (centres unmarked) [Example 171, 5-Chloro-1-(cyclopentylmethyl-{4-[2-(2,5-dioxo-pyrrolidin-1-yl)-ethoxy]-3-methoxy-benzyl}-amino)-indan-2-carboxylic acid]",389
6,"CCCCN(Cc1ccc(OCCN2C(=O)CCC2=O)c(C)c1)C1c2ccc(Cl)cc2CC1C(=O)O (centres unmarked) [Example 173, 1-(Butyl-{4-[2-(2,5-dioxo-pyrrolidin-1-yl)-ethoxy]-3-methyl-benzyl}-amino)-5-chloro-indan-2-carboxylic acid]",603
7,"Cc1cc(CN(CC(C)C)C2c3ccc(Cl)cc3CC2C(=O)O)ccc1OCCN1C(=O)CCC1=O (centres unmarked) [Example 174, 5-Chloro-1-({4-[2-(2,5-dioxo-pyrrolidin-1-yl)-ethoxy]-3-methyl-benzyl}-isobutyl-amino)-indan-2-carboxylic acid]",800
8,Cc1cc(CN(C)C(c2ccc(Cl)cc2)C(C)C(=O)O)ccc1OCCN1C(=O)CCC1=O (centres unmarked) [Example 176],5520
9,"CCCCN(Cc1ccc(CCCN2C(=O)CCC2=O)c(C)c1)C(CC(=O)O)c1ccc2c(c1)CCO2 (centres unmarked) [Example 177, 3-(Butyl-{4-[3-(2,5-dioxo-pyrrolidin-1-yl)-propyl]-3-methyl-benzyl}-amino)-3-(2,3-dihydro-benzofuran-5-yl)-propionic acid]",255
10,"COc1cc(CN(CC2CCCCC2)C(CC(=O)O)c2ccc(C(F)(F)F)cc2)ccc1OCCN1C(=O)CCC1=O (centres unmarked) [Example 181, 3-(Cyclohexylmethyl-{4-[2-(2,5-dioxo-pyrrolidin-1-yl)-ethoxy]-3-methoxy-benzyl}-amino)-3-(4-trifluoromethyl-phenyl)-propionic acid]",507
11,"CCN(Cc1ccc(OCCN2C(=O)CCC2=O)c(OC)c1)C(C(=O)O)c1ccc(Cl)cc1 (centres unmarked) [Example 182, (4-Chloro-phenyl)-({4-[2-(2,5-dioxo-pyrrolidin-1-yl)-ethoxy]-3-methoxy-benzyl}-ethyl-amino)-acetic acid]",3900
12,CCCCN(Cc1ccc(OCCN2C(=O)CCC2=O)c(OC)c1)C(C(=O)O)c1ccc(Cl)cc1 (centres unmarked) [Example 184],336
13,"CCCN(Cc1ccc(OCCN2C(=O)CCC2=O)c(F)c1)C(c1ccc(Cl)cc1)C(C)C(=O)O (centres unmarked) [Example 195, 3-(4-Chloro-phenyl)-3-({4-[2-(2,5-dioxo-pyrrolidin-1-yl)-ethoxy]-3-fluoro-benzyl}-propyl-amino)-2-methyl-propionic acid]",342
14,"CCCN(Cc1ccc(OCCN2C(=O)CCC2=O)c(CC)c1)C(c1ccc(Cl)cc1)C1(C(=O)O)CC1 (centres unmarked) [Example 196, 1-[(4-Chloro-phenyl)-({4-[2-(2,5-dioxo-pyrrolidin-1-yl)-ethoxy]-3-ethyl-benzyl}-propyl-amino)-methyl]-cyclopropanecarboxylic acid]",630

# Continued, values first:
row,IC50 [nM],SMILES
1,81,"Cc1cc(CN(CC2CCCC2)C(CC(=O)O)c2ccc3c(c2)CCO3)ccc1OCCn1c(=O)ccn(C)c1=O (centres unmarked) [Example 160, 3-(Cyclopentylmethyl-{3-methyl-4-[2-(3-methyl-2,6-dioxo-3,6-dihydro-2H-pyrimidin-1-yl)-ethoxy]-benzyl}-amino)-3-(2,3-dihydro-benzofuran-5-yl)-propionic acid]"
2,76,"CCCCN(Cc1ccc(OCCn2c(=O)ccn(C)c2=O)c(C)c1)C(CC(=O)O)c1ccc2c(c1)CCO2 (centres unmarked) [Example 161, 3-(Butyl-{3-methyl-4-[2-(3-methyl-2,6-dioxo-3,6-dihydro-2H-pyrimidin-1-yl)-ethoxy]-benzyl}-amino)-3-(2,3-dihydro-benzofuran-5-yl)-propionic acid]"
3,162,"Cc1cc(CN(CC2CC2)C(CC(=O)O)c2ccc(Cl)cc2Cl)ccc1OCCN1C(=O)CCC1=O (centres unmarked) [Example 163, 3-(Cyclopropylmethyl-{4-[2-(2,5-dioxo-pyrrolidin-1-yl)-ethoxy]-3-methyl-benzyl}-amino)-3-(2,4-dichloro-phenyl)-propionic acid]"
4,133,"CCCCN(Cc1ccc(OCCN2C(=O)CCC2=O)c(C)c1)C(CC(=O)O)c1ccc(Cl)cc1Cl (centres unmarked) [Example 164, 3-(Butyl-{4-[2-(2,5-dioxo-pyrrolidin-1-yl)-ethoxy]-3-methyl-benzyl}-amino)-3-(2,4-dichloro-phenyl)-propionic acid]"
5,75,"COc1cc(CN(Cc2ccc(F)cc2)C(CC(=O)O)c2ccc(Cl)cc2)ccc1OCCN1C(=O)CCC1=O (centres unmarked) [Example 165, 3-(4-Chloro-phenyl)-3-[{4-[2-(2,5-dioxo-pyrrolidin-1-yl)-ethoxy]-3-methoxy-benzyl}-(4-fluoro-benzyl)-amino]-propionic acid; hydrochloride]"
6,237,"CCCCN(Cc1ccc(OCCN2C(=O)CCC2=O)c(OC)c1)C1c2ccc(Cl)cc2CC1C(=O)O (centres unmarked) [Example 168, 1-(Butyl-{4-[2-(2,5-dioxo-pyrrolidin-1-yl)-ethoxy]-3-methoxy-benzyl}-amino)-5-chloro-indan-2-carboxylic acid]"
7,266,"CCN(Cc1ccc(OCCN2C(=O)CCC2=O)c(C)c1)C(c1ccc(Cl)cc1)C(C)C(=O)O (centres unmarked) [Example 175, 3-(4-Chloro-phenyl)-3-({4-[2-(2,5-dioxo-pyrrolidin-1-yl)-ethoxy]-3-methyl-benzyl}-ethyl-amino)-2-methyl-propionic acid]"
8,183,"CCCN(Cc1ccc(OCCN2C(=O)CCC2=O)c(C)c1)C(CC(=O)O)c1ccc(C)cc1 (centres unmarked) [Example 178, 3-({4-[2-(2,5-Dioxo-pyrrolidin-1-yl)-ethoxy]-3-methyl-benzyl}-propyl-amino)-3-p-tolyl-propionic acid]"
9,91,"COc1cc(CN(CC2CCCC2)C(CC(=O)O)c2ccc(C)cc2)ccc1OCCN1C(=O)CCC1=O (centres unmarked) [Example 179, 3-(Cyclopentylmethyl-{4-[2-(2,5-dioxo-pyrrolidin-1-yl)-ethoxy]-3-methoxy-benzyl}-amino)-3-p-tolyl-propionic acid]"
10,198,"COc1cc(CN(CC2CCCC2)C(CC(=O)O)c2ccc(C(F)(F)F)cc2)ccc1OCCN1C(=O)CCC1=O (centres unmarked) [Example 180, 3-(Cyclopentylmethyl-{4-[2-(2,5-dioxo-pyrrolidin-1-yl)-ethoxy]-3-methoxy-benzyl}-amino)-3-(4-trifluoromethyl-phenyl)-propionic acid]"
11,71,"COc1cc(CN(CC2CC2)C(c2ccc(Cl)cc2)C(C)C(=O)O)ccc1OCCN1C(=O)CCC1=O (centres unmarked) [Example 187, 3-(4-Chloro-phenyl)-3-(cyclopropylmethyl-{4-[2-(2,5-dioxo-pyrrolidin-1-yl)-ethoxy]-3-methoxy-benzyl}-amino)-2-methyl-propionic acid]"
12,31,"COc1cc(CN(CC2CCCC2)C(CC(=O)O)c2ccc(Cl)cc2)ccc1SCCN1C(=O)CCC1=O (centres unmarked) [Example 188, 3-(4-Chloro-phenyl)-3-(cyclopentylmethyl-{4-[2-(2,5-dioxo-pyrrolidin-1-yl)-ethylsulfanyl]-3-methoxy-benzyl}-amino)-propionic acid]"
13,62,"COc1cc(CN(CC2CCCC2)C(CC(=O)O)c2ccc(Cl)c(F)c2)ccc1SCCN1C(=O)CCC1=O (centres unmarked) [Example 190, 3-(4-Chloro-3-fluoro-phenyl)-3-(cyclopentylmethyl-{4-[2-(2,5-dioxo-pyrrolidin-1-yl)-ethylsulfanyl]-3-methoxy-benzyl}-amino)-propionic acid]"
14,20,"COc1cc(CN(CC2CC2)C(CC(=O)O)c2ccc(Cl)c(Cl)c2)ccc1SCCN1C(=O)CCC1=O (centres unmarked) [Example 191, 3-(Cyclopropylmethyl-{4-[2-(2,5-dioxo-pyrrolidin-1-yl)-ethylsulfanyl]-3-methoxy-benzyl}-amino)-3-(3,4-dichloro-phenyl)-propionic acid]"
15,55,"CCCN(Cc1ccc(SCCN2C(=O)CCC2=O)c(OC)c1)C(CC(=O)O)c1ccc(Cl)c(Cl)c1 (centres unmarked) [Example 192, 3-(3,4-Dichloro-phenyl)-3-({4-[2-(2,5-dioxo-pyrrolidin-1-yl)-ethylsulfanyl]-3-methoxy-benzyl}-propyl-amino)-propionic acid]"
16,72,"COc1cc(CN(CC(C)C)C(CC(=O)O)c2ccc(Cl)c(Cl)c2)ccc1SCCN1C(=O)CCC1=O (centres unmarked) [Example 193, 3-(3,4-Dichloro-phenyl)-3-({4-[2-(2,5-dioxo-pyrrolidin-1-yl)-ethylsulfanyl]-3-methoxy-benzyl}-isobutyl-amino)-propionic acid]"
17,272,"CCCN(Cc1ccc(OCCN2C(=O)CCC2=O)c(C)c1)C(c1ccc(Cl)cc1)C(C)C(=O)O (centres unmarked) [Example 194, 3-(4-Chloro-phenyl)-3-({4-[2-(2,5-dioxo-pyrrolidin-1-yl)-ethoxy]-3-methyl-benzyl}-propyl-amino)-2-methyl-propionic acid]"
18,175,"Cc1cc(CN(CC2CCCC2)[C@@H](CC(=O)O)c2ccc(Cl)cc2)ccc1OCCN1C(=O)CN(C)C1=O [Example 199, (S)-3-(4-Chloro-phenyl)-3-(cyclopentylmethyl-{3-methyl-4-[2-(3-methyl-2,5-dioxo-imidazolidin-1-yl)-ethoxy]-benzyl}-amino)-propionic acid]"
